Assay results as given in patent US20210000838A1, “COMBINATION THERAPY” (MEI Pharma, Inc., priority 2018, published 2021).

Columns and labels:
Format in all cases: cell-based
DOHH-2 cells = assay: ATPLite growth inhibition assay, DOHH-2 cells; settings: single agent, FIG. 10
Description: (§1) Cells were thawed from a liquid nitrogen preserved state. […] Assay plates were accepted if they pass the following quality control standards: relative luciferase values were consistent throughout the entire experiment, Z-factor scores were greater than 0.6, untreated/vehicle controls behaved consistently on the plate. […]

NU-DHL-1 cells = assay: ATPLite growth inhibition assay, NU-DHL-1 cells; settings: single agent, FIG. 10
Description: as §1

Pfeiffer cells = assay: ATPLite growth inhibition assay, Pfeiffer cells; settings: single agent, FIG. 10
Description: as §1

SU-DHL-10 cells = assay: ATPLite growth inhibition assay, SU-DHL-10 cells; settings: single agent, FIG. 10
Description: as §1

OCI-Ly19 cells = assay: ATPLite growth inhibition assay, OCI-Ly19 cells; settings: single agent, FIG. 10
Description: as §1

OCI-Ly3 cells = assay: ATPLite growth inhibition assay, OCI-Ly3 cells; settings: single agent, FIG. 10
Description: as §1

[1] = system: panel of 8 DLBCL cell lines; assay: ATPLite growth inhibition assay across panel of 8 DLBCL cell lines; settings: single agent, FIG. 9

Which results are given for `CN1CCC(c2ccccc2CC(C)(C)Nc2nc(N3CCOCC3)nc(-n3c(C(F)F)nc4ccccc43)n2)CC1` [Compound I, 4-(2-(difluoromethyl)-1H-benzo[d]imidazol-1-yl)-N-(2-methyl-1-(2-(1-methylpiperidin-4-yl)phenyl)propan-2-yl)-6-morpholino-1,3,5-triazin-2-amine]?
growth inhibition effect type (DOHH-2 cells): cytotoxic effects; growth inhibition effect type (NU-DHL-1 cells): sub-cytostatic effects; growth inhibition effect type (Pfeiffer cells): sub-cytostatic effects; growth inhibition effect type (SU-DHL-10 cells): sub-cytostatic effects; growth inhibition effect type (OCI-Ly19 cells): cytotoxic effects; growth inhibition effect type (OCI-Ly3 cells): cytotoxic effects; growth inhibition levels ([1]; all cell lines): > 50%; GI50 ([1]; median across cell line panel, 72 hours): 1730 nM
